In patent publication US20240299382A1, “COMPOUNDS AND METHODS FOR DEGRADING RCOR1, LSD1, HDAC1 AND HDAC2 IN THE COREST” (University of Florida Research Foundation, Inc., priority 2021, published 2024):
Like-named read-outs stand apart in the source and are kept apart here.

Legend:
[1] = target: T1, RCOR1 (Homo sapiens, UniProt Q9UKL0); assay: Western blotting of protein levels in MCF7 cells; format: cell-based; details: MCF7 cells; for degradation of RCOR1: 10 μM, 6 hours, Western blotting; for RCOR1 protein level: indicated concentrations, 14 hours
T1 construct: Cells were then lysed and subjected to Western blotting with antibodies against the indicated proteins; endogenous in cells; host or cells: MCF7
T1 sequence (Q9UKL0 whole entry): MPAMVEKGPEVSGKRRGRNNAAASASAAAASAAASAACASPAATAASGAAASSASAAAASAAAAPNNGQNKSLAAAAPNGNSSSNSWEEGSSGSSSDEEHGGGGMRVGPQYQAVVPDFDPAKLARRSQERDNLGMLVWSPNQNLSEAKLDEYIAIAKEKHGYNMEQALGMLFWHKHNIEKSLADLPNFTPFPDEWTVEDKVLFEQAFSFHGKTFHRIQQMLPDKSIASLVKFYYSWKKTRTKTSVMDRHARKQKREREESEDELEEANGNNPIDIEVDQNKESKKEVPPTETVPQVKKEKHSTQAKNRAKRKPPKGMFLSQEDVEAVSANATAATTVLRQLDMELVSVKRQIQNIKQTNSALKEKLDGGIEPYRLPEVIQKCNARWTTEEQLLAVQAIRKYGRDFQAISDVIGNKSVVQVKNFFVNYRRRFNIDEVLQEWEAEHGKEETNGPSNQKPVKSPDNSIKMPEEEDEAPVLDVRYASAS
Procedure: (§1) […] Cells were pretreated with the proteasomal inhibitor MG132 (MG, 3 μM) or the neddylation inhibitor MLN4924 (MLN, 1 μM) for 2 hours. Cells were then lysed and subjected to Western blotting with antibodies against the indicated proteins. The levels of RCOR1 were normalized against that of tubulin and shown as % of DMSO control.
(§2) Cells were pretreated with the proteasomal inhibitor MG132 (MG, 3 μM) or the neddylation inhibitor MLN4924 (MLN, 1 μM) for 2 hours. Cells were then lysed and subjected to Western blotting with antibodies against the indicated proteins. The levels of RCOR1 and LSD1 were normalized against that of tubulin and shown as % of DMSO control.

[2] = target: T2, LSD1 (Homo sapiens, UniProt O60341); assay: Western blotting of protein levels in MCF7 cells; format: cell-based; details: MCF7 cells; for degradation of LSD1: 10 μM, 6 hours, Western blotting; for LSD1 protein level: indicated concentrations, 14 hours
T2 construct: Cells were then lysed and subjected to Western blotting with antibodies against the indicated proteins; endogenous in cells; host or cells: MCF7
Procedure: as §1, §2

[3] = target: T3, HDAC2 (Homo sapiens, UniProt Q92769); assay: Western blotting of protein levels in MCF7 cells; format: cell-based; details: 10 μM, 6 hours, Western blotting
T3 construct: endogenous in cells; host or cells: MCF7
T3 sequence (Q92769 whole entry): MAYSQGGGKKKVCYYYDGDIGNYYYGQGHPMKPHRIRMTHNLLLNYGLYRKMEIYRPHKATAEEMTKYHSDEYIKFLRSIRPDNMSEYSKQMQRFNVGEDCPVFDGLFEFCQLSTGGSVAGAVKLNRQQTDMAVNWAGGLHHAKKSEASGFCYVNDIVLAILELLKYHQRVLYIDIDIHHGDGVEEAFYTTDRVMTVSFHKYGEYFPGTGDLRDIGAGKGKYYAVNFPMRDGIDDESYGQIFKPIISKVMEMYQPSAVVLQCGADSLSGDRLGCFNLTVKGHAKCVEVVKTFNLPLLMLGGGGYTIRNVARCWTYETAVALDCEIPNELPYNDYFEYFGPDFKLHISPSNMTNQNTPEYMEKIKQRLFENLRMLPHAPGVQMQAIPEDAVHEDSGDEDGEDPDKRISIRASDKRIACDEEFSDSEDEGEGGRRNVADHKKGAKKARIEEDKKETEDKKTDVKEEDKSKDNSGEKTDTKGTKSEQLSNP
Procedure: (§3) MCF7 cells were exposed to DMSO or the indicated compounds (10 μM) for 6 hours. Cells were pretreated with the proteasomal inhibitor MG132 (MG, 3 μM) or the neddylation inhibitor MLN4924 (MLN, 1 μM) for 2 hours. Cells were then lysed and subjected to Western blotting with antibodies against the indicated proteins. The levels of RCOR1 were normalized against that of tubulin and shown as % of DMSO control.
as §3, with “DMSO, SR-4370 and other compounds at” for “DMSO or”, “concentrations” for “compounds (10 μM)”, “14” for “6”, “RCOR1 and LSD1” for “RCOR1”

[4] = target: T4, HDAC1 (Homo sapiens, UniProt Q13547); assay: Western blotting of protein levels in MCF7 cells; format: cell-based; details: 10 μM, 6 hours, Western blotting
T4 construct: endogenous in cells; host or cells: MCF7
T4 sequence (Q13547 whole entry): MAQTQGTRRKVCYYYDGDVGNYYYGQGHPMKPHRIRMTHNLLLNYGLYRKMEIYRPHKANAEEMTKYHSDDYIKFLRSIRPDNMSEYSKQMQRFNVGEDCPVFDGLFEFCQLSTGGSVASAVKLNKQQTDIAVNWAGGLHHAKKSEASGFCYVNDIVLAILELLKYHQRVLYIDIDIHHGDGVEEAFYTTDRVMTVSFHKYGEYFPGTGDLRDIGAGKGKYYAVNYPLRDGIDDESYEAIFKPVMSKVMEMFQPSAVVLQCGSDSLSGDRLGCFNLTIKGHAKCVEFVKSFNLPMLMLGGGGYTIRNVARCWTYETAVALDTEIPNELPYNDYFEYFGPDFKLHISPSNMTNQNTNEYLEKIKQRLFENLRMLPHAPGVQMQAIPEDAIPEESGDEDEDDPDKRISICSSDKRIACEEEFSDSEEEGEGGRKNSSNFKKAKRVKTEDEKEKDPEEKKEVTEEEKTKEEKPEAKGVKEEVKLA
Procedure: as §3
as §3, with “DMSO, SR-4370 and other compounds at” for “DMSO or”, “concentrations” for “compounds (10 μM)”, “14” for “6”, “RCOR1 and LSD1” for “RCOR1”

[5] = In vivo tolerability / MTD of UF010, oral dosing; details: mice, oral dosing up to 80 mg/kg
Procedure: (§4) In vivo tolerability of UF010, the first identified compound of the benzoylhydrazide HDACi class, was evaluated in mice. […] We conducted pilot experiments to evaluate PK parameters of UF010. As with the MTD experiment, mice were dosed orally at 80 mg/kg. Plasma samples were collected at various time points and the amount of UF010 was determined.

[6] = PK parameters after oral dosing in mice; details: 80 mg/kg orally
Procedure: as §4

[7] = test system: HDACs; assay: HDAC inhibition (HDACi activity); format: biochemical
[8] = data from ref 80; cited from earlier work

| RCOR1 protein level [1] | LSD1 protein level [2] | Compound | degradation of RCOR1 [1] | degradation of LSD1 [2] | degradation of HDAC2 [3] | degradation of HDAC1 [4] | other results |
| --- | --- | --- | --- | --- | --- | --- | --- |
|  |  | CCCCNNC(=O)c1ccc(-c2cc(C)cc(F)c2)cc1 [SR-4372] | can degrade | can degrade | can degrade | can degrade |  |
|  |  | CCCCNNC(=O)c1ccc(Br)cc1 [UF010] | completely inactive | completely inactive | completely inactive | completely inactive | in vivo tolerability [5]: completely tolerated without any signs of toxicity or loss of body weight; oral bioavailability [6]: bioavailable orally; AUC ([6]; plasma): 6.07 µM·h; Cmax ([6]; plasma): 5.95 µM; T1/2 ([6]; plasma): 1.24 h; Tmax ([6]; plasma): 0.25 h; HDACi activity [7]: potent HDACi |
| notably increased | moderately increased | O=C(/C=C/c1cccc(S(=O)(=O)Nc2ccccc2)c1)NO [belinostat, reference compound] |  |  |  |  |  |
| notably increased | slightly reduced | O=C(CCCCCCC(=O)Nc1ccccc1)NO [vorinostat, reference compound] |  |  |  |  |  |

| Compound | RCOR1 protein level [1] | LSD1 protein level [2] | degradation of RCOR1 [1] | degradation of LSD1 [2] | degradation of HDAC2 [3] | degradation of HDAC1 [4] | other results |
| --- | --- | --- | --- | --- | --- | --- | --- |
| Nc1ccccc1NC(=O)c1ccc(CNC(=O)OCc2cccnc2)cc1 [entinostat, reference compound] | notably increased | slightly reduced |  |  |  |  | T1/2 [8]: ~1 h |
